Assay results as given in patent US11890288B2, “Sulfonamide or sulfinamide compound having effect of inducing BRD4 protein degradation and pharmaceutical use thereof” (MITSUBISHI TANABE PHARMA CORPORATION, priority 2020, dated 2024).
Marks after values point to notes of the source that are not given here.

Assays:
[1] = tested on: human acute myeloid leukemia MV-4-11 cell; assay: Cytotoxic action on MV-4-11 cells (WST-8, 96 hr); format: cell-based; settings: MV4-11, MV-4-11, 96 hr
Description: (§1) The cytotoxic action of the compound of the present invention against human cancer cells was evaluated in vitro. In this experiment, (+)-JQ1 (Nature volume 468, pages 1067-1073 (23 Dec. 2010)) known to have an inhibitory activity on the binding of BRD4 protein and a ligand therefor was used as a positive control drug. Respective cells were suspended in 10% FBS/RPMI1640, seeded in a 96 well plate and cultured at 5% CO2, 37° C. overnight. A test compound dissolved in DMSO was diluted with 10% FBS/RPMI1640 and added and the cells were further cultured for 96 hr. After culturing, the viable cell number was measured using a cell number measurement WST-8 kit (Kishida Chemical Co., Ltd.). As a control, the measurement was performed under conditions free of the test compound. The cytotoxic activity of the compound of the present invention against human prostate cancer LNCaP cells is shown in IC50 value in Table 1. The IC50 value is a concentration of the compound showing 50% cell survival rate when the cell survival rate thereof under compound untreated condition is 100%. It was calculated from the straight line connecting the cell survival rate at two points enclosing the 50% cell survival rate and the compound concentration. […]

[2] = tested on: human castration-resistant prostate cancer PC-3 cell; assay: Cytotoxic action on PC-3 cells (WST-8, 96 hr); format: cell-based; settings: PC-3, 96 hr
Description: as §1

[3] = tested on: human ovarian cancer A2780 cell; assay: Cytotoxic action on A2780 cells (WST-8, 96 hr); format: cell-based; settings: A2780, 96 hr
Description: as §1

[4] = tested on: human cisplatin-resistant ovarian cancer SK-OV-03 cell; assay: Cytotoxic action on SK-OV-03 cells (WST-8, 96 hr); format: cell-based; settings: SK-OV-03, 96 hr
Description: as §1

[5] = tested on: human breast cancer ZR-75-1 cell; assay: Cytotoxic action on ZR-75-1 cells (WST-8, 96 hr); format: cell-based; settings: ZR-75-1, 96 hr
Description: as §1

[6] = tested on: human triple negative breast cancer MDA-MB-231 cell; assay: Cytotoxic action on MDA-MB-231 cells (WST-8, 96 hr); format: cell-based; settings: MDA-MB-231, 96 hr
Description: as §1

[7] = tested on: human stomach cancer SNU-16 cell; assay: Cytotoxic action on SNU-16 cells (WST-8, 96 hr); format: cell-based; settings: SNU-16, 96 hr
Description: as §1

[8] = tested on: human non-small cell lung cancer NCI-H2126 cell; assay: Cytotoxic action on NCI-H2126 cells (WST-8, 96 hr); format: cell-based; settings: NCI-H2126, 96 hr
Description: as §1

[9] = tested on: human small cell lung cancer NCI-H82 cell; assay: Cytotoxic action on NCI-H82 cells (WST-8, 96 hr); format: cell-based; settings: NCI-H82, 96 hr
Description: as §1

[10] = tested on: human large cell lung cancer NCI-H460 cell; assay: Cytotoxic action on NCI-H460 cells (WST-8, 96 hr); format: cell-based; settings: NCI-H460, 96 hr
Description: as §1

[11] = tested on: human glioma U-87 MG cell; assay: Cytotoxic action on U-87 MG cells (WST-8, 96 hr); format: cell-based
Description: as §1

[12] = tested on: human liver cancer HLF cell; assay: Cytotoxic action on HLF cells (WST-8, 96 hr); format: cell-based
Description: as §1

[13] = tested on: MDA-MB-436 w/o2 cells; assay: Cytotoxic action on MDA-MB-436 w/o2 cells that acquired resistance to conventional BRD4 degraders (WST-8, 96 hr); format: cell-based, human
Description: The cytotoxic action of the compound of the present invention against cancer cells that acquired resistance to conventional BRD4 protein degradation inducing agents was evaluated in vitro. In this experiment, ARV-771 (Proc Natl Acad Sci USA. volume 113, pages 7124-7129 (28 Jun. 2016)) and MZ1 (ACS Chem Biol. Volume 10, pages 1770-1777 (21 Aug. 2015)), in which a ligand for VHL and BRD4 protein inhibitor are linked, were used as a conventional BRD4 protein degradation inducing agent serving as a comparison control. Human breast cancer MDA-MB-436 cells and MDA-MB-436 cells that acquired resistance to conventional BRD4 protein degradation inducing agents (MDA-MB-436 w/o2 cells) were suspended in 10% FBS/RPMI1640, seeded in a 96 well plate and cultured at 5% CO2, 37° C. overnight. A test compound dissolved in DMSO was diluted with 10% FBS/RPMI1640 and added and the cells were further cultured for 96 hr. After culturing, the viable cell number was measured using a cell number measurement WST-8 kit (Kishida Chemical Co., Ltd.). As a control, the measurement was performed under conditions free of the test compound. The cytotoxic activity of the compound of the present invention against each cell is shown in IC50 value in Table 4. The IC50 value is a concentration of the compound showing 50% cell survival rate when the cell survival rate thereof under compound untreated condition is 100%. It was calculated from the straight line connecting the cell survival rate at two points enclosing the 50% cell survival rate and the compound concentration. In addition, the tolerance (fold) was calculated by dividing the IC50 value in MDA-MB-436 w/o2 cells by the IC50 value in MDA-MB-436 cells.

[14] = tested on: human acute myeloid leukemia MV-4-11 cell transplanted mouse; assay: Antitumor effect in MV-4-11 cell transplanted mouse (tail vein, days 1, 5, 9, 13); format: in vivo; settings: tumor weight on day 15
Description: The in vivo antitumor effect of the compound of the present invention was studied using human acute myeloid leukemia MV-4-11 cell transplanted mouse. MV-4-11 cells were subcutaneously transplanted into the inguinal region of male, 6-week-old BALB/c nude mouse (5×10^6 cells/mouse). The compound of the present invention was administered into the tail vein on days 1, 5, 9, 13 from the time point when the assumed tumor volume determined from ½ab^2 (a is major axis and b is minor axis of tumor) reached about 100 mm^3 (day 1). The control group was administered with a solvent, 20% hydroxypropyl-β-cyclodextrin solution. On day 15, the tumor was isolated, the weight was measured, and the tumor growth inhibitory rate IR (%) was calculated by the following formula. tumor growth inhibitory rate IR (%)={1−(average tumor weight of administration group/average tumor weight of nonadministration control group)}×100(%)

## COC(=O)C[C@@H]1N=C(c2ccc(-c3ccc(C(=O)NCc4ccc(S(=O)(=O)Nc5ccc(C)c6c(C#N)c[nH]c56)cc4)cc3)cc2)c2c(sc(C)c2C)-n2c(C)nnc21 [Example 1, methyl [(6S)-4-{4′-[({4-[(3-cyano-4-methyl-1H-indol-7-yl)sulfamoyl]phenyl}methyl)carbamoyl][1,1′-biphenyl]-4-yl}-2,3,9-trimethyl-6H-thieno[3,2-f][1,2,4]triazolo[4,3-a][1,4]diazepin-6-yl]acetate]
[1]
  IC50: 0.16 nM
[2]
  IC50: 0.88 nM
[3]
  IC50: 0.19 nM
[4]
  IC50: 41 nM
[5]
  IC50: 27 nM
[6]
  IC50: 4 nM
[7]
  IC50: 6.4 nM
[8]
  IC50: 6.6 nM
[9]
  IC50: 21 nM
[10]
  IC50: 28 nM
[11]
  IC50: 6 nM
[12]
  IC50: 2.9 nM
[13]; Homo sapiens, MDA-MB-436 w/o2 cells, 96 hr
  IC50: 0.51 nM
[13]; IC50 in MDA-MB-436 w/o2 cells divided by IC50 in MDA-MB-436 cells
  resistance: 1.3 fold
[14]; 1 mg/kg/day
  tumor growth inhibitory rate: 68.4* %
[14]; 3 mg/kg/day
  tumor growth inhibitory rate: 95.3* %
